# Results from paper PMC8155022 (Scientific Reports, 2021).
# Tests used:
# [1] = target: T1, PXR (Homo sapiens, UniProt O75469); assay: nuclear receptor cellular GAL4 reporter assay; type: cell-based
# T1 construct: expressed in transfected cells
# [2] = test system: healthy human volunteers; assay: phase 1 single ascending dose study, safety
# Experimental: Randomized, double-blind, placebo-controlled, single center study was designed by Janssen Immunology Clinical Development team and approved by Independent Ethics Committee/Institutional Review Board (Comité voor Medische Ethiek UZA, Wilrijkstraat 10, Edegem, 2650, Belgium). The study was conducted in Janssen’s Clinical Pharmacology Unit in Belgium from May 18th 2017 to April 5th 2018, according to Declaration of Helsinki principles and International Committee on Harmonisation Good Clinical Practice guidelines. […] Participants were healthy males and females of non-childbearing potential (postmenopausal or permanently sterile), aged 18 to 60 years inclusive, with a body mass index of 18 and 30 kg/m^2 and body weight of not less than 50 kg. Informed consent was obtained from all participants. No formal sample size and power calculations were performed. The number of participants chosen for this study was considered adequate to provide a preliminary safety assessment and PK assessment. The randomization was based on a computer-generated treatment randomization schedule prepared and balanced by using randomly permuted blocks. […] Participants and study site staff members including the Investigator were blinded to treatment allocation during entire study period. […] Cohorts 1 to 4 received single oral doses of 10, 30, 100 and 200 mg after an overnight fast, and cohort 5 were dosed 100 mg within 30 min of the start of a standard high fat meal. […] For all parts of the study, adverse events and concomitant medications were assessed and recorded from screening through follow-up (day 14–21 post-dose). The following safety measures were assessed at various time points during the study: medical history, physical examination, neurologic examination, electrocardiogram (12-lead ECG, or continuous telemetry), and vital signs (blood pressure, heart rate, respiratory rate, and temperature). […] This was a Phase 1 first-in-human study with limited sample size, the data generated was descriptive in nature, and no formal statistical hypothesis testing was planned. Although there was no formal interim analysis, assessments of PK and PD samples by cohort and safety assessments were conducted and reviewed during the study to plan dose-escalation and future development.
# [3] = target: T2, JAK2(h) (Homo sapiens, UniProt O60674); assay: Kinase panel; type: biochemical
# T2 construct: purchased Cerep (receptors, ion channels, transporters); Eurofins Panlabs (kinases)
# T2 sequence (O60674 whole entry): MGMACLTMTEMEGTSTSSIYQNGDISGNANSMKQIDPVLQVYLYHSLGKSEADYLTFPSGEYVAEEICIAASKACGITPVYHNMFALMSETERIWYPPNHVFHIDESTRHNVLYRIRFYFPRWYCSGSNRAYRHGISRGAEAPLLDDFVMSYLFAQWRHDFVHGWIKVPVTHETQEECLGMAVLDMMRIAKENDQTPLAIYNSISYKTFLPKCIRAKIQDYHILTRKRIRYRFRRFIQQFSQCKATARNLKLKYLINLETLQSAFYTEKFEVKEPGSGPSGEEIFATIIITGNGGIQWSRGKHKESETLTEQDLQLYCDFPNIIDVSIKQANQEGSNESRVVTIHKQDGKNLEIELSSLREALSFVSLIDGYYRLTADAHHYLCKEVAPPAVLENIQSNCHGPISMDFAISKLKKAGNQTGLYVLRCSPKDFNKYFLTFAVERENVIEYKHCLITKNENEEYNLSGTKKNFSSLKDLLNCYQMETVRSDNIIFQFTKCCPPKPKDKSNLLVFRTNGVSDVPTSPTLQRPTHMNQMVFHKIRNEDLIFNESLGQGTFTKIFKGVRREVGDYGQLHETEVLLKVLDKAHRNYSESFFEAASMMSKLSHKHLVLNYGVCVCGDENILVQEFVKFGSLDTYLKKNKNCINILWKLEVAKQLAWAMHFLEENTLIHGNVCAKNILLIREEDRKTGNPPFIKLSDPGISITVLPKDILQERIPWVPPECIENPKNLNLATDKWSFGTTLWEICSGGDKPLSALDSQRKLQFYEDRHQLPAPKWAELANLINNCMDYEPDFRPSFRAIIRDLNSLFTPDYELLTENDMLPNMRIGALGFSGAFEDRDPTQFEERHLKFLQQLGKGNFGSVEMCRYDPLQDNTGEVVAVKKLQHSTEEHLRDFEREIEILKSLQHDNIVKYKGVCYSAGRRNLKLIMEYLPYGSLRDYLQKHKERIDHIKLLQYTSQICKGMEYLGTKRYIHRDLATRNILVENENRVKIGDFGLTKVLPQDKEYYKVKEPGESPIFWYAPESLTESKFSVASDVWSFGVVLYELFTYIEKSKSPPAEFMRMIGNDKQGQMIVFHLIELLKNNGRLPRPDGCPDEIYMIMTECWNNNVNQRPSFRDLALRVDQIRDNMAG
# Experimental: (§1) Kinase selectivity was conducted by Eurofins Panlabs Inc (St Charles, MO).
# [4] = target: T3, MT1 (h) (Homo sapiens, UniProt P48039); assay: Cerep panel; type: binding
# T3 construct: purchased Cerep (receptors, ion channels, transporters); Eurofins Panlabs (kinases)
# Experimental: (§2) A panel of 52 different receptors, ion channels and transporters was tested by Cerep, Inc. (Redmond, WA).
# [5] = target: T4, delta 2 (h) (DOP) (Homo sapiens, UniProt P41143); assay: Cerep panel; type: binding
# T4 construct: purchased Cerep (receptors, ion channels, transporters); Eurofins Panlabs (kinases)
# T4 sequence (P41143 whole entry): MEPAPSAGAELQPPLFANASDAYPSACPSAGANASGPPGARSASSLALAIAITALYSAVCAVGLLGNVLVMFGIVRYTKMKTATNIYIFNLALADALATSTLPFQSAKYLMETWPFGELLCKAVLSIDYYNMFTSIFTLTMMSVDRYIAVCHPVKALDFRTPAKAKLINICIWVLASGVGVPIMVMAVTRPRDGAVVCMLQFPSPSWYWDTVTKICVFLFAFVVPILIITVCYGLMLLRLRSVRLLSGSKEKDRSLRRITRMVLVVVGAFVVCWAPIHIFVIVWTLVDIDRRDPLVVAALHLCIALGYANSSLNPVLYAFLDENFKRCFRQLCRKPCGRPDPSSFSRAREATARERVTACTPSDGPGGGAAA
# Experimental: as §2
# [6] = target: T5, A3 (h) (Homo sapiens, UniProt P0DMS8); assay: Cerep panel; type: binding
# T5 construct: purchased Cerep (receptors, ion channels, transporters); Eurofins Panlabs (kinases)
# T5 sequence (P0DMS8 1-318): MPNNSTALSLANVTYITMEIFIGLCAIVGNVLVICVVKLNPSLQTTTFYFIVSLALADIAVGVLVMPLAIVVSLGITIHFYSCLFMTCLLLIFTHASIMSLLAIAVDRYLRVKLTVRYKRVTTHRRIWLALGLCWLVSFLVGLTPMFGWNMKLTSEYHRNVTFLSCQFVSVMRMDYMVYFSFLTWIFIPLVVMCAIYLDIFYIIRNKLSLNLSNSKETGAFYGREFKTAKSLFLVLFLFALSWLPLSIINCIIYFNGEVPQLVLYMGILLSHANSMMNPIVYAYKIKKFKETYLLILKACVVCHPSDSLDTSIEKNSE
# Experimental: 28 GPCRs were evaluated through cAMP or calcium FLIPR assays[67]. A panel of 52 different receptors, ion channels and transporters was tested by Cerep, Inc. (Redmond, WA). Kinase selectivity was conducted by Eurofins Panlabs Inc (St Charles, MO).
# [7] = target: T6, CK2(h) (Homo sapiens, UniProt P68400); assay: Kinase panel; type: biochemical
# T6 construct: purchased Cerep (receptors, ion channels, transporters); Eurofins Panlabs (kinases)
# T6 sequence (P68400 whole entry): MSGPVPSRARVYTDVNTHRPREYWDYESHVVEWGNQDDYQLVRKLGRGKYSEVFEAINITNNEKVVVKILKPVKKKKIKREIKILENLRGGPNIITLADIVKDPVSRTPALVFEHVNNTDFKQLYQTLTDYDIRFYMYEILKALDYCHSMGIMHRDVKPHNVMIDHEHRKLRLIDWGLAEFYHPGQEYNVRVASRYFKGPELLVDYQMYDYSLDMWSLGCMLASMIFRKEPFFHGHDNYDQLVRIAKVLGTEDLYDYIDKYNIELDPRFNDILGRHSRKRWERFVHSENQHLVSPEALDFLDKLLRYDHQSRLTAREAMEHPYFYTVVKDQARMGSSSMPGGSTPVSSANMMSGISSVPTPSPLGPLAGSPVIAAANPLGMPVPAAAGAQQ
# T6 sequence (P67870 whole entry partner): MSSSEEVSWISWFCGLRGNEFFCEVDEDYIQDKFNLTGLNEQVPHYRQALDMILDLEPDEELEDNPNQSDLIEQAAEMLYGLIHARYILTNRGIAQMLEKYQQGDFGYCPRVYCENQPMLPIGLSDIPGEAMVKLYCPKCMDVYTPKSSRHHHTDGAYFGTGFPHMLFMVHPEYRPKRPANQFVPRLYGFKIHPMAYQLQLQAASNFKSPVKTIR
# Experimental: as §1
# [8] = target: T7, NE-T transporter (h) (Homo sapiens, UniProt P23975); assay: Cerep panel; type: binding
# T7 construct: purchased Cerep (receptors, ion channels, transporters); Eurofins Panlabs (kinases)
# T7 sequence (P23975 whole entry): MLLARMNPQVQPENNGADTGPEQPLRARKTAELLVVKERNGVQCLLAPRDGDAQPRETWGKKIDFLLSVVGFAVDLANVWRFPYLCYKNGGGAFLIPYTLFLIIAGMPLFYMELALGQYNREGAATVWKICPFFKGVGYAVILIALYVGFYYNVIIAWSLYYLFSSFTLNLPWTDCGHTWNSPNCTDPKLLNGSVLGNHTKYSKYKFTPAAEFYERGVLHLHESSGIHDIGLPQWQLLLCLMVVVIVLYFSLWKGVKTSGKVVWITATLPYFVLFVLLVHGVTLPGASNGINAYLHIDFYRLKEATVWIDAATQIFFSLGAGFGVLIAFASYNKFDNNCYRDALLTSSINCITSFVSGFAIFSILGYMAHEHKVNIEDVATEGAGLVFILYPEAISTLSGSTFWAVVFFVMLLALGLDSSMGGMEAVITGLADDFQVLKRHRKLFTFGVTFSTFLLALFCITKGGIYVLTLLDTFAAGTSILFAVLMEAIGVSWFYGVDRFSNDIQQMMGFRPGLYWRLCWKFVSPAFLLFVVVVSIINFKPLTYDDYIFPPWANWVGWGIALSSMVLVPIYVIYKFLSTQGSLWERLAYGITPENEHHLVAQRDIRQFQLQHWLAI
# Experimental: as §2
# [9] = target: ERRγ (Homo sapiens, UniProt P62508); assay: biochemical TR-FRET assay; details: agonist and antagonist mode; read-out: potency in agonist and antagonist mode
# [10] = target: T8, CHK2(h) (Homo sapiens, UniProt O96017); assay: Kinase panel; type: biochemical
# T8 construct: purchased Cerep (receptors, ion channels, transporters); Eurofins Panlabs (kinases)
# T8 sequence (O96017 whole entry): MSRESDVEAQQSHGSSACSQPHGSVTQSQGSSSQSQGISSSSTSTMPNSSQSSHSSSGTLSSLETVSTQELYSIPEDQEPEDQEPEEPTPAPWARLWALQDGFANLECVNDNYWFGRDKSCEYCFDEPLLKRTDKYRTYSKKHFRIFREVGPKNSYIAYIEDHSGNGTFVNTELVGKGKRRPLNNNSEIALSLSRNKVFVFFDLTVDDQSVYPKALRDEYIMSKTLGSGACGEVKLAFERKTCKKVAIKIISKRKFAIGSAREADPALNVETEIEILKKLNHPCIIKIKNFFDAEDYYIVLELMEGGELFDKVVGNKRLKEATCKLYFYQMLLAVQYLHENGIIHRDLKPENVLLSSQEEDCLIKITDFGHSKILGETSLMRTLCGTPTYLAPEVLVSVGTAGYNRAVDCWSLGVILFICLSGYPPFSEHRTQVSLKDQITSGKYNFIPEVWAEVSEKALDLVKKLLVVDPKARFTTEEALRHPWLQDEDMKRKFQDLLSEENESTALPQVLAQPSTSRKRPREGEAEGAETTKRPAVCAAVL
# Experimental: as §1
# [11] = target: T9, CaMKIIβ(h) (Homo sapiens, UniProt Q13554); assay: Kinase panel; type: biochemical
# T9 construct: purchased Cerep (receptors, ion channels, transporters); Eurofins Panlabs (kinases)
# T9 sequence (Q13554 whole entry): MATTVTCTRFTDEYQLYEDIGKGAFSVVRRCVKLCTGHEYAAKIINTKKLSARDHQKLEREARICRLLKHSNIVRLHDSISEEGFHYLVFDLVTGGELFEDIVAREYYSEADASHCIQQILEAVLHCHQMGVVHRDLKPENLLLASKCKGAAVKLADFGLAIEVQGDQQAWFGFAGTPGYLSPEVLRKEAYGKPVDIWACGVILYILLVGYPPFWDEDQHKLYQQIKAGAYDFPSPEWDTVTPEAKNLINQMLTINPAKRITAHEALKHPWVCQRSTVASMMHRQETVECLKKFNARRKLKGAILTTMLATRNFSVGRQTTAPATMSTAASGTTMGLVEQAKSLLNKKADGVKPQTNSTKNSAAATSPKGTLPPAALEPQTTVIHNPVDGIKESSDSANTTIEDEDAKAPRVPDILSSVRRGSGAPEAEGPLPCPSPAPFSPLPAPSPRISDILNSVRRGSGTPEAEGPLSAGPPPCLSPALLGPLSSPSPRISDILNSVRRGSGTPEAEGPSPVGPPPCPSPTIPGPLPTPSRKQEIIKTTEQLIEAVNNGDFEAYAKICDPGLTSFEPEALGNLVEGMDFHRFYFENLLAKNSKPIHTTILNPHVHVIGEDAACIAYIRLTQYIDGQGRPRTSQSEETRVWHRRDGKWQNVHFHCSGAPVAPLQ
# Experimental: as §1
# [12] = target: T10, NT1 (h) (NTS1) (Homo sapiens, UniProt P30989); assay: Cerep panel; type: binding
# T10 construct: purchased Cerep (receptors, ion channels, transporters); Eurofins Panlabs (kinases)
# T10 sequence (P30989 whole entry): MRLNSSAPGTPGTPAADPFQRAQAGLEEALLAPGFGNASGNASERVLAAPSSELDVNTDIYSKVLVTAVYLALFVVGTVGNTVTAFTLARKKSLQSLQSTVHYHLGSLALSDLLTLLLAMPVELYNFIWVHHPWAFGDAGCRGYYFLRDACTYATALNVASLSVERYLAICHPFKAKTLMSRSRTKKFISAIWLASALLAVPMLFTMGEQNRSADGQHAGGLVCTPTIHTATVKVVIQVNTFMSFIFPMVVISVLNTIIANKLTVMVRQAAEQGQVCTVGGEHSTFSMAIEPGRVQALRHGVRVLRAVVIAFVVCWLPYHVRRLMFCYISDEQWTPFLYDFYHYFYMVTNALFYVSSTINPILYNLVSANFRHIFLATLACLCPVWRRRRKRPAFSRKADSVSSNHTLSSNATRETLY
# Experimental: as §2
# [13] = 100 mg (fasted) n = 9, single oral dose
# [14] = 100 mg (fed) n = 9, single oral dose
# T1 sequence (O75469 whole entry, the tested form may be a part): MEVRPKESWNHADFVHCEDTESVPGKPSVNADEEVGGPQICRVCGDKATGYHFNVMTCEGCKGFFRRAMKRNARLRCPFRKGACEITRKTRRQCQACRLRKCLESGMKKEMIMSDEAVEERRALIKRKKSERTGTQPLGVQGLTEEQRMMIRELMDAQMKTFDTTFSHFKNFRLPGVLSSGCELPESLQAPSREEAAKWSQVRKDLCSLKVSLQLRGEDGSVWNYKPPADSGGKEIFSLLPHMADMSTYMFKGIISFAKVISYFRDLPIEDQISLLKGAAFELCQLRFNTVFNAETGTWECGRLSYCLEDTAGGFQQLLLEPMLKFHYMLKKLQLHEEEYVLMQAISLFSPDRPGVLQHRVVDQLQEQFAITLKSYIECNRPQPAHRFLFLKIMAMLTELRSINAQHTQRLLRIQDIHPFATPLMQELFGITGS
structure (smiles),measurement,setting,value
CC1CCCN1C(=O)c1nc(C(=O)NCC(C)(C)O)sc1-c1ccc(C(O)(C(F)(F)F)C(F)(F)F)c(Cl)c1Cl (stereo not drawn) [JNJ-61803534],mode of action on PXR,[1],possibly partial modulator
same,IC50,[1]; agonist and antagonist mode,340 nM
same,"Aphthous ulcer, treatment-emergent adverse events","[2]; 10 mg n = 6, single oral dose",0
same,"Back pain, treatment-emergent adverse events","[2]; 10 mg n = 6, single oral dose",1
same,"Diarrhea, treatment-emergent adverse events","[2]; 10 mg n = 6, single oral dose",0
same,"Headache, treatment-emergent adverse events","[2]; 10 mg n = 6, single oral dose",0
same,"Hypercholesterolaemia, treatment-emergent adverse events","[2]; 10 mg n = 6, single oral dose",0
same,"Medical device site reaction, treatment-emergent adverse events","[2]; 10 mg n = 6, single oral dose",0
same,"Musculoskeletal discomfort, treatment-emergent adverse events","[2]; 10 mg n = 6, single oral dose",0
same,"Nasal congestion, treatment-emergent adverse events","[2]; 10 mg n = 6, single oral dose",0
same,"Oral herpes, treatment-emergent adverse events","[2]; 10 mg n = 6, single oral dose",0
same,"Viral upper respiratory tract infection, treatment-emergent adverse events","[2]; 10 mg n = 6, single oral dose",0
same,"Aphthous ulcer, treatment-emergent adverse events","[2]; 30 mg n = 6, single oral dose",0
same,"Back pain, treatment-emergent adverse events","[2]; 30 mg n = 6, single oral dose",0
same,"Diarrhea, treatment-emergent adverse events","[2]; 30 mg n = 6, single oral dose",0
same,"Headache, treatment-emergent adverse events","[2]; 30 mg n = 6, single oral dose",1
same,"Hypercholesterolaemia, treatment-emergent adverse events","[2]; 30 mg n = 6, single oral dose",0
same,"Medical device site reaction, treatment-emergent adverse events","[2]; 30 mg n = 6, single oral dose",1
same,"Musculoskeletal discomfort, treatment-emergent adverse events","[2]; 30 mg n = 6, single oral dose",0
same,"Nasal congestion, treatment-emergent adverse events","[2]; 30 mg n = 6, single oral dose",0
same,"Oral herpes, treatment-emergent adverse events","[2]; 30 mg n = 6, single oral dose",1
same,"Viral upper respiratory tract infection, treatment-emergent adverse events","[2]; 30 mg n = 6, single oral dose",0
same,"Aphthous ulcer, treatment-emergent adverse events",[2]; [13],0
same,"Back pain, treatment-emergent adverse events",[2]; [13],1
same,"Diarrhea, treatment-emergent adverse events",[2]; [13],2
same,"Headache, treatment-emergent adverse events",[2]; [13],4
same,"Hypercholesterolaemia, treatment-emergent adverse events",[2]; [13],2
same,"Medical device site reaction, treatment-emergent adverse events",[2]; [13],2
same,"Musculoskeletal discomfort, treatment-emergent adverse events",[2]; [13],0
same,"Nasal congestion, treatment-emergent adverse events",[2]; [13],2
same,"Oral herpes, treatment-emergent adverse events",[2]; [13],0
same,"Viral upper respiratory tract infection, treatment-emergent adverse events",[2]; [13],2
same,"Aphthous ulcer, treatment-emergent adverse events",[2]; [14],1
same,"Back pain, treatment-emergent adverse events",[2]; [14],1
same,"Diarrhea, treatment-emergent adverse events",[2]; [14],2
same,"Headache, treatment-emergent adverse events",[2]; [14],0
same,"Hypercholesterolaemia, treatment-emergent adverse events",[2]; [14],0
same,"Medical device site reaction, treatment-emergent adverse events",[2]; [14],2
same,"Musculoskeletal discomfort, treatment-emergent adverse events",[2]; [14],0
same,"Nasal congestion, treatment-emergent adverse events",[2]; [14],0
same,"Oral herpes, treatment-emergent adverse events",[2]; [14],1
same,"Viral upper respiratory tract infection, treatment-emergent adverse events",[2]; [14],2
same,participants with clinically significant high cholesterol values,[2]; 100 mg fasted group,2
same,participants with clinically significant high cholesterol values,[2]; 200 mg fasted group,one
same,"Aphthous ulcer, treatment-emergent adverse events","[2]; 200 mg n = 6, single oral dose",1
same,"Back pain, treatment-emergent adverse events","[2]; 200 mg n = 6, single oral dose",1
same,"Diarrhea, treatment-emergent adverse events","[2]; 200 mg n = 6, single oral dose",0
same,"Headache, treatment-emergent adverse events","[2]; 200 mg n = 6, single oral dose",0
same,"Hypercholesterolaemia, treatment-emergent adverse events","[2]; 200 mg n = 6, single oral dose",1
same,"Medical device site reaction, treatment-emergent adverse events","[2]; 200 mg n = 6, single oral dose",1
same,"Musculoskeletal discomfort, treatment-emergent adverse events","[2]; 200 mg n = 6, single oral dose",2
same,"Nasal congestion, treatment-emergent adverse events","[2]; 200 mg n = 6, single oral dose",0
same,"Oral herpes, treatment-emergent adverse events","[2]; 200 mg n = 6, single oral dose",0
same,"Viral upper respiratory tract infection, treatment-emergent adverse events","[2]; 200 mg n = 6, single oral dose",0
same,participants with Grade 2 or higher abnormal cholesterol values,[2]; combined JNJ-61803534 group,Fourteen
same,participants with TEAEs reasonably related to the study agent,[2]; combined JNJ-61803534 group (diarrhea),1
same,"TEAEs leading to death, treatment-emergent severe adverse events, severe TEAEs or TEAEs leading to discontinuation",[2]; in vivo,no
same,safety and tolerability,[2]; single doses up to and including 200 mg,safe and well-tolerated
same,activity at 1 µM,[3],109%
same,activity at 10 µM,[3],105%
same,inhibition at 1 µM,[4],< 10%
same,inhibition at 10 µM,[4],20.4%
same,inhibition at 1 µM,[5],< 10%
same,inhibition at 10 µM,[5],< 10%
same,inhibition at 1 µM,[6]; 1 µM,< 10%
same,% Inhibition at 10 µM,[6]; 10 µM,45.2%
same,inhibition at 10 µM,[6]; 10 µM,> 50%
same,activity at 1 µM,[7],109%
same,activity at 10 µM,[7],102%
same,inhibition at 1 µM,[8],< 10%
same,inhibition at 10 µM,[8],< 10%
same,IC50,[9],> 10000 nM
same,activity at 1 µM,[10],107%
same,activity at 10 µM,[10],111%
same,activity at 1 µM,[11],89%
same,activity at 10 µM,[11],92%
same,inhibition at 1 µM,[12],< 10%
same,inhibition at 10 µM,[12],< 10%
